Experiment: osmotic coefficient (dimensionless); mn = molality of the nth substance listed, in mol/kg
Conditions: 323.15 K, Liquid, Vapor Pressure Osmometer

CCOS(=O)(=O)[O-].CC[n+]1ccccc1 [1-ethylpyridinium ethyl sulfate] + CC(C)O
Conditions	osmotic coefficient
m1 = 0.0578	0.948
m1 = 0.1042	0.871
m1 = 0.2018	0.772
m1 = 0.3112	0.695
m1 = 0.3991	0.664
m1 = 0.5034	0.607
m1 = 0.6891	0.564
m1 = 0.9837	0.533
m1 = 1.287	0.506
m1 = 1.684	0.49
m1 = 2.075	0.47
m1 = 2.514	0.449
m1 = 2.915	0.432
m1 = 3.338	0.417

CCOS(=O)(=O)[O-].CC[n+]1ccccc1 [1-ethylpyridinium ethyl sulfate] + CCC(C)O
Conditions	osmotic coefficient
m1 = 0.0597	0.82
m1 = 0.0791	0.784
m1 = 0.1061	0.759
m1 = 0.1993	0.665
m1 = 0.313	0.575
m1 = 0.4056	0.515
m1 = 0.5166	0.482
m1 = 0.7016	0.452
m1 = 1.006	0.429
m1 = 1.291	0.421
m1 = 1.73	0.406
m1 = 2.104	0.392
m1 = 2.512	0.383
m1 = 2.915	0.378
m1 = 3.294	0.374

CCOS(=O)(=O)[O-].CC[n+]1ccccc1 [1-ethylpyridinium ethyl sulfate] + CCCCCO
Conditions	osmotic coefficient
m1 = 0.0539	0.761
m1 = 0.0802	0.679
m1 = 0.1082	0.605
m1 = 0.2024	0.521
m1 = 0.3151	0.465
m1 = 0.4053	0.435
m1 = 0.511	0.416
m1 = 0.7996	0.376
m1 = 1.105	0.359
m1 = 1.414	0.355
m1 = 1.719	0.347
m1 = 2.23	0.335
m1 = 2.724	0.332
m1 = 3.206	0.33

CCOS(=O)(=O)[O-].CC[n+]1ccccc1 [1-ethylpyridinium ethyl sulfate] + CCCCO
Conditions	osmotic coefficient
m1 = 0.0564	0.758
m1 = 0.0836	0.694
m1 = 0.1146	0.652
m1 = 0.2084	0.578
m1 = 0.2995	0.536
m1 = 0.3996	0.508
m1 = 0.5015	0.495
m1 = 0.7046	0.467
m1 = 0.9934	0.44
m1 = 1.289	0.429
m1 = 1.688	0.418
m1 = 2.094	0.402
m1 = 2.493	0.388
m1 = 2.886	0.38
m1 = 3.301	0.374

CCOS(=O)(=O)[O-].CC[n+]1ccccc1 [1-ethylpyridinium ethyl sulfate] + CCCO
Conditions	osmotic coefficient
m1 = 0.0584	0.853
m1 = 0.073	0.824
m1 = 0.1074	0.768
m1 = 0.2108	0.684
m1 = 0.3057	0.635
m1 = 0.4128	0.603
m1 = 0.5105	0.586
m1 = 0.7918	0.561
m1 = 1.108	0.547
m1 = 1.347	0.54
m1 = 1.697	0.528
m1 = 2.217	0.505
m1 = 2.727	0.487
m1 = 3.22	0.474
